We go through two compounds from PMC2864270 (PLoS Neglected Tropical Diseases, 2010).

Data set [1] has as its system L. donovani intracellular amastigotes. Briefly: Intracellular amastigotes assay, L. donovani infecting THP-1 macrophages (image-based infection ratio). Conditions: Leishmania donovani, 96 h, intracellular amastigotes infecting THP-1 macrophages, 4 days incubation, read-out: L. donovani EC50 amastigote. It counts as cell-based. How it is done: (§1) THP-1 cells were cultivated in suspension at a density of 10^5 to 10^6 cells/mL in RPMI (Gibco 1640, United States) medium supplemented with 10% heat-inactivated FBS and 1% streptomycin/penicillin at 37°C and 5% CO2. The differentiation of THP-1 into macrophages was induced by incubation of the cells for 48 hours with phorbol 12-myristate 13-acetate (PMA) at 50 ng/ml. For infection, late-stage L. major or L. donovani rich in metacyclic promastigotes was added to differentiated THP-1 cells (ratio of 50 parasites to 1 host cell) in Evotec™ 384-well microplates using a FlexDrop™ (Perkin Elmer) to dispense 50 µL/well. Compounds were added 24 hours after infection and microplates were incubated at 37°C and 5% CO2 for 4 days. Amphotericin B as the reference compound (positive control) at 10 µM as the EC100 and 1% DMSO (negative control) were used in all the plates for data normalization (see bellow). […] Microplates were read in an Opera confocal microscope (Perkin Elmer), enabling the determination of the infection ratio of the parasites by image analysis. […] The macrophage nuclei and internalized parasites were identified and counted if localized in the foreground previously selected (Figure S1). With this technique, extracellular parasites were not considered in the calculations, and the infection ratio was determined by the number of infected cells divided by the total number of cells after normalization based on the controls. The average infection ratios from the positive and negative controls were normalized to 0% and 100% infection, and the infection ratio read from each compound activity was proportionally distributed within this range. […]
(§2) Infection of human macrophage cells in vitro with Leishmania has been previously described as a suitable model for screening and was adopted for our purpose. […] The average Z-factor calculated per plate based on the reference drug (amphotericin B) and carrier (1% DMSO) was 0.62 for L. major infection and 0.59 for L. donovani infection, and minimum accepted Z-factor for the analysis was 0.5.

The nature of data set [2]: Microsomal stability assay, human liver microsomes. The class given is in vitro ADME. Conditions: 2 µM compound, 0.5 mg/mL microsomes; for parent compound remaining after 30 minutes, human liver microsomes: NADPH. As for the experimental part:
(§3) Compounds at a concentration of 2 µM in 0.2% DMSO were incubated with 0.5 mg/mL rat (Sprague-Dawley Rat, BD Gentest) and human (human pool donors, BD Gentest) liver microsomes in potassium phosphate buffer in a reaction started by the addition of NADPH and stopped either immediately or at 5, 10, 30, 60 or 120 minutes for a precise estimate of microsomal stability. The corresponding loss of the parent compound was determined by a quadrupole liquid chromatography-mass spectrometry (LC-MS) with diode-array detection (Agilent 1200, Agilent Technology). The samples were passed through trapping cartridges (Security Guard Cartridge, Gemini C18, 4×2.0 mm, 3 µm, Phenomenex) followed by an analytical column (Gemini C18, 50×2.0 mm, 3 µm, Phenomenex). Positive electrospray ionization (ESI+) was employed for this analysis. The mobile phases A (water with 0.1% formic acid) and B (acetonitrile with 0.1% formic acid) were used at a flow rate of 0.3 mL/min. Gradient elution started with 95% mobile phase A and 5% mobile phase B. Elution was changed to a linear gradient until 50% A and B for 1 min. This condition was held for 0.5 min, then increased to 95% B over 0.5 min, and held for 1.5 min. Then, the elution gradient returned to 95% A and 5% B over 0.5 min, was held for the remaining 3.5 min. The percentage of the remaining compound was calculated by comparison with the initial quantity at 0 min. Half-life was calculated based on first-order reaction kinetics.

The nature of data set [3]: Microsomal stability assay, rat liver microsomes. The class given is in vitro ADME, Sprague-Dawley Rat. Conditions: 2 µM compound, 0.5 mg/mL microsomes; for half-life at 2 µM: Sprague-Dawley, rat, liver microsomes, first-order kinetics, read-out: theoretical half-life, rat liver microsomes. As for the experimental part: as §3
Data set [4] can be described thus: Human cell toxicity test, resazurin viability. The class given is cell-based. Conditions: THP-1 cells (non-differentiated); THP-1 human cell line; read-out: Cytotoxicity CC50 THP-1. As for the experimental part:
To assess the cytotoxicity of compounds on THP-1, an acute monocytic leukemia-derived human cell line (ATCC TIB-202™), a viability assay also using resazurin reduction with minor modifications in concentration and incubation time was performed. Z-factor [15] and other parameters were used for secondary screening validation and hit exclusion.
To exclude potentially toxic compounds from the active list, we performed a secondary viability screening using the non-differentiated human macrophage cell line THP-1. Compounds that interfered with THP-1 viability at a concentration of 10 µM or lower were discarded.

Data set [5] has as its system L. major intracellular amastigotes. Briefly: Intracellular amastigotes assay, L. major infecting THP-1 macrophages (image-based infection ratio). It counts as cell-based. Conditions: Leishmania major, 96 h, intracellular amastigotes infecting THP-1 macrophages, 4 days incubation, read-out: L. major EC50 amastigote. As for the experimental part:
as §1, §2

For data set [6], the target named is CYP2D6 (Homo sapiens, UniProt P10635). Briefly: CYP450 inhibition assay, fluorescent probe AMMC. The class given is in vitro ADME. Conditions: for IC50: individual human P450s, eight-point curve. How it is done: Individual fluorescent probe substrates were used with individual rhCYP isozymes and fluorescence detection according to a previously published method. Probe substrates were 7-benzyloxy-4-(trifluoromethyl)-coumarin (BFC) for CYP3A4 and 3-[2-(N,N-diethyl-N-methylammonium)ethyl]-7-methoxy-4-methylcoumarin (AMMC) for CYP2D6 in 0.5% DMSO. IC50 was determined using an eight-point concentration curve with three-fold serial dilutions. Victor3™ (Perkin Elmer) was used for quantification in the fluorescent method (Perkin Elmer Life and Analytical Sciences).

Each structure is given as a SMILES string.

Sequence of CYP2D6 (P10635 whole entry): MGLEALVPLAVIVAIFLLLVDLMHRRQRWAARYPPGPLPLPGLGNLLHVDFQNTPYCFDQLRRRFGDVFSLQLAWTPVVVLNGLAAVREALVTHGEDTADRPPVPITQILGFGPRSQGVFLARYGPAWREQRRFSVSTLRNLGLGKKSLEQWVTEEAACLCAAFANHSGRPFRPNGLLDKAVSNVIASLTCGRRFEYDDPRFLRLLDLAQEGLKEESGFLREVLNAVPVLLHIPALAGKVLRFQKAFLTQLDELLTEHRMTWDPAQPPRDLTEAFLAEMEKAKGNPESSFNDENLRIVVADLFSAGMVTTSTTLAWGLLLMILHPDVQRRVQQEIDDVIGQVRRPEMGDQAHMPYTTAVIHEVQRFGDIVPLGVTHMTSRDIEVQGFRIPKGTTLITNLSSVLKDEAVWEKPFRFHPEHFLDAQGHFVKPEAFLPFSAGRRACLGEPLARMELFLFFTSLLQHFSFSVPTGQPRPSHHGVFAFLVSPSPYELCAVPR

For the compound `COc1cc(/C=N/NC(=O)c2cccc(C)c2O)ccc1OCc1ccccc1` [CA272], the EC50 in data set [1] was 19 µM; in data set [5] it was 0.8 µM; in data set [6], greater than 10 µM. In addition, the “parent compound remaining after 30 minutes, human liver microsomes” value in data set [2] is listed as 77.8%. Besides, the half-life at 2 µM in data set [2] (human, liver microsomes, first-order kinetics, read-out: theoretical half-life, human liver microsomes) worked out at 79.4 min; in data set [3], 31.8 min. Also, the “parent compound remaining, rat liver microsomes” value in data set [3] (NADPH, 30 minutes) amounted to 53.3%. Besides, the CC50 in data set [4] is greater than 10 µM. The compound further registered an IC50 in data set [6] greater than 10 µM.
For the compound `Cc1nc2c(Cl)cccc2c(O)c1CN1CCCCC1C` (stereo not drawn) [CH872], the figures for the EC50 in data set [1], in data set [5] and in data set [6] were 0.06 µM, 0.3 µM and greater than 10 µM, respectively. For the same compound, the “parent compound remaining after 30 minutes, human liver microsomes” value in data set [2] is recorded as 99.6%. Moreover, in data set [2] (first-order kinetics), the “theoretical half-life, human liver microsomes” value is on record as “long”. Also, the “time after which completely degraded, rat liver microsomes” value in data set [3] worked out at 25 min. The half-life at 2 µM in data set [3] worked out at 4.1 min. Besides, in data set [4], the CC50 was greater than 10 µM. The compound further registered an IC50 in data set [6] greater than 10 µM.
